According to PubChem BioAssay (NCI):
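Tested at 5 concentrations; 48 h exposure; 96-well plates; endpoints linearly interpolated, else capped at highest concentration. Abbreviation: GI50, concentration required for 50% inhibition of growth. TGI: concentration producing complete growth inhibition.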

Experiments:
Test in all cases: NCI-60 cell line screen, 48 h
UACC-257 melanoma = system: UACC-257 melanoma
SF-268 CNS = system: SF-268 CNS
CCRF-CEM leukemia = system: CCRF-CEM leukemia
CAKI-1 renal = system: CAKI-1 renal
HL-60(TB) leukemia = system: HL-60(TB) leukemia
M14 melanoma = system: M14 melanoma
SK-MEL-28 melanoma = system: SK-MEL-28 melanoma
ACHN renal = system: ACHN renal
A549 NSCLC = system: A549 NSCLC
NCI-H522 lung = system: NCI-H522 lung

Structure (SMILES)	GI50 (UACC-257 melanoma)	TGI (UACC-257 melanoma)	GI50 (SF-268 CNS)	TGI (SF-268 CNS)	GI50 (CCRF-CEM leukemia)	TGI (CCRF-CEM leukemia)	GI50 (CAKI-1 renal)	TGI (CAKI-1 renal)	GI50 (HL-60(TB) leukemia)	TGI (HL-60(TB) leukemia)	GI50 (M14 melanoma)	TGI (M14 melanoma)	GI50 (SK-MEL-28 melanoma)	TGI (SK-MEL-28 melanoma)	GI50 (ACHN renal)	TGI (ACHN renal)	GI50 (A549 NSCLC)	TGI (A549 NSCLC)	GI50 (NCI-H522 lung)	TGI (NCI-H522 lung)
O=C(Nc1ccc(Cl)c([N+](=O)[O-])c1)Nc1nc2ccccc2s1	2.4 µM	6.99 µM	4.49 µM	16.6 µM	3.88 µM	20.8 µM	2.08 µM	6.46 µM	4.48 µM	24 µM	11.3 µM	33 µM	4.95 µM	21.3 µM	3.34 µM	12.8 µM	3.37 µM	13 µM	2.44 µM	7.33 µM
Cc1ccc(NC(c2ccccc2)c2ccc3cccnc3c2O)cc1 (stereo not given)	–	25.8 µM	–	13.6 µM	–	4.27 µM	–	16.4 µM	–	11.7 µM	–	19 µM	–	33.3 µM	–	15.5 µM	–	41.3 µM	–	8.53 µM
CCNC(=O)C[C@@H]1N=C(c2ccc(Cl)cc2)c2cc(OC)ccc2-n2c(C)nnc21	2 µM	> 100 µM	> 53.6 µM	> 100 µM	7.44 µM	> 100 µM	0.584 µM	> 100 µM	0.275 µM	38.1 µM	2.02 µM	> 100 µM	11.2 µM	> 100 µM	7.4 µM	> 100 µM	13.1 µM	> 100 µM	2.08 µM	> 100 µM
O=C(Nc1ccc(S(=O)(=O)Nc2nccs2)cc1)c1cccnc1Nc1cccc(Cl)c1	18.8 µM	43.6 µM	12.8 µM	31.5 µM	23.4 µM	> 100 µM	17 µM	52.2 µM	24.8 µM	78.9 µM	15.7 µM	34.9 µM	17.8 µM	37.7 µM	18.1 µM	96.6 µM	15.3 µM	39.8 µM	11 µM	28.4 µM
COc1ccc(CN2C(=O)/C(=C\c3cc(OC)c(OC)c(OC)c3)c3cc(OC)ccc32)cc1	1.94 µM	4.94 µM	2.68 µM	7.05 µM	3.4 µM	> 100 µM	2.95 µM	> 22.2 µM	3.28 µM	> 28.5 µM	1.98 µM	4.32 µM	1.72 µM	3.3 µM	1.73 µM	3.2 µM	2.74 µM	8.62 µM	1.32 µM	2.8 µM
